From ChEMBL document CHEMBL5465560, “Selectivity Literature for EUbOPEN Chemogenomic Library” (2024) come the findings set out here.

Assay [1] has as its target T1, Serine/threonine-protein kinase LATS1 (Homo sapiens) (UniProt O95835).
T1 sequence (whole entry): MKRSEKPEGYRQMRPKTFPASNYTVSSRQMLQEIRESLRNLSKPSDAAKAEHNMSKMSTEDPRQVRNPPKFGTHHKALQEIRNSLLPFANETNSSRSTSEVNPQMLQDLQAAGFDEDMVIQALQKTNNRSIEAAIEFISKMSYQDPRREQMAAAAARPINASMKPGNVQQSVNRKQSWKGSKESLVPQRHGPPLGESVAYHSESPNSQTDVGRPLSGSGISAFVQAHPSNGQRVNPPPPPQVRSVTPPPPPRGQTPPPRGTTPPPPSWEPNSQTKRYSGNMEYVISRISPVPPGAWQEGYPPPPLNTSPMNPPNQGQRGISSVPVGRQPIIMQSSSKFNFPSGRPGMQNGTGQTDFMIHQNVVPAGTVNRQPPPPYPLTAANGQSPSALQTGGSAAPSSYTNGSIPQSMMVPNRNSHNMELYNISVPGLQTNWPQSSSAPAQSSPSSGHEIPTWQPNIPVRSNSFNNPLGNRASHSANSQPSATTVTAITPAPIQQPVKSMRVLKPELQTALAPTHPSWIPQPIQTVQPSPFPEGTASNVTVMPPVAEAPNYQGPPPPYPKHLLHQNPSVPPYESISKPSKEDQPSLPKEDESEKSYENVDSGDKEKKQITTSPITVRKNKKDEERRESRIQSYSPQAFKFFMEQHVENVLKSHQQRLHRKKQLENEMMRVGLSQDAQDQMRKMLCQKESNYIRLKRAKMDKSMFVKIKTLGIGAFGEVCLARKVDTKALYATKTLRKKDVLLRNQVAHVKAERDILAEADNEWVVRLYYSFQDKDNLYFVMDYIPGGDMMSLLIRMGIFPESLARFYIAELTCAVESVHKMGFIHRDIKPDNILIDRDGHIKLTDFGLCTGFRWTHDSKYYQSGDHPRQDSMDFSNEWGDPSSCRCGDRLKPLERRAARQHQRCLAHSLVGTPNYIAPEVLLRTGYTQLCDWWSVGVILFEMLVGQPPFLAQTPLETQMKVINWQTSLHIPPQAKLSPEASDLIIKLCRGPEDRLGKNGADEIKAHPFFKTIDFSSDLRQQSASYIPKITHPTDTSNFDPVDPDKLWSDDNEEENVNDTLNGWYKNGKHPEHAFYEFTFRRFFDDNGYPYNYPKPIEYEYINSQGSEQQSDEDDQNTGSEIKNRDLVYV
Description: Selectivity interaction (KinomeScan (DiscoverX)) EUB0001619a LATS1. To be noted: at 1 µM.

Assay [2] has as its target Calcium/calmodulin-dependent protein kinase type II subunit delta (Homo sapiens) (UniProt Q13557). To be noted: at 10 µM.
The target of assay [3] is Mitogen-activated protein kinase kinase kinase kinase 1 (Homo sapiens) (UniProt Q92918). The assay is described as follows: Selectivity interaction (ActivX KiNativ screen (kinase selectivity in THP-1 cell lysates)) EUB0000639a MAP4K1. Format: subcellular. To be noted: lysate.
Assay [4] addresses T2, Aurora kinase A (Homo sapiens) (UniProt O14965).
T2 sequence (whole entry): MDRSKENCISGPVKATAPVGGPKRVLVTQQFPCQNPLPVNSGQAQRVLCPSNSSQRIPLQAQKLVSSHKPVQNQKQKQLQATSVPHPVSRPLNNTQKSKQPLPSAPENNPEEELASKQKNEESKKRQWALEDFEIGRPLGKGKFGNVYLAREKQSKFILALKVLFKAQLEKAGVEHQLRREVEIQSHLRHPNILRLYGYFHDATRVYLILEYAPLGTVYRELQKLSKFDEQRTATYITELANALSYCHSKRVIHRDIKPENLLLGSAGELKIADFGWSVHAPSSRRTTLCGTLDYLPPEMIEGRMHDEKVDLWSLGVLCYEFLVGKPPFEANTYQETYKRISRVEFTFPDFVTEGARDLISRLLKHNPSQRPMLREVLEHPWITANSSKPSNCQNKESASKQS
Description: Selectivity interaction (ProQinase) EUB0000171b STK6.

Assay [5] addresses T3, MAP/microtubule affinity-regulating kinase 4 (Homo sapiens) (UniProt Q96L34).
T3 sequence (whole entry): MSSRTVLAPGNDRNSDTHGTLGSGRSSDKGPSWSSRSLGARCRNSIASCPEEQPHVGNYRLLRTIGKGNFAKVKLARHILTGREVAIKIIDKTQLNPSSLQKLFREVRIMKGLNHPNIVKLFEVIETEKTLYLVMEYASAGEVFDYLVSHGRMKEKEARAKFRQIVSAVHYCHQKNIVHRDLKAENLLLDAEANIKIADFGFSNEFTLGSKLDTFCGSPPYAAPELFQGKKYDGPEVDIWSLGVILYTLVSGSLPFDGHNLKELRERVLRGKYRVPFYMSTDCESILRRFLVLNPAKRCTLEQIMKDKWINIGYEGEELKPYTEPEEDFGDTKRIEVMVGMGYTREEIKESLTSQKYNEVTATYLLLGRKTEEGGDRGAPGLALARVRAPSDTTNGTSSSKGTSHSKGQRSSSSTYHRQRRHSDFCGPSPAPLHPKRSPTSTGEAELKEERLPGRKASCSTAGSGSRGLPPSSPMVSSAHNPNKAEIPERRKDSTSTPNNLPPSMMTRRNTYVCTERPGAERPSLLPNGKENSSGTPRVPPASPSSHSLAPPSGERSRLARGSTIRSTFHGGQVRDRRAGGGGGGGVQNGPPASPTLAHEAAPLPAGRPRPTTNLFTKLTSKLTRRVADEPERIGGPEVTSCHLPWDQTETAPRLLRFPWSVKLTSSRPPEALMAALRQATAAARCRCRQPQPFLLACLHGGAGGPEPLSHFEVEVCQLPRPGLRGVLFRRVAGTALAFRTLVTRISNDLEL
Description: Selectivity interaction (ProQinase) EUB0000171b MARK4.

For assay [6], the target named is Serine/threonine-protein kinase WNK1 (Homo sapiens) (UniProt Q9H4A3). Description: Selectivity interaction (Kinase panel (KiNativ target engagement assay in Jurkat cells)) EUB0001635a WNK1. The assay is classed as cell-based. To be noted: at 1 µM.

Structures are written as SMILES.

Sequence of Mitogen-activated protein kinase kinase kinase kinase 1 (Homo sapiens) (Q92918 whole entry, looked up): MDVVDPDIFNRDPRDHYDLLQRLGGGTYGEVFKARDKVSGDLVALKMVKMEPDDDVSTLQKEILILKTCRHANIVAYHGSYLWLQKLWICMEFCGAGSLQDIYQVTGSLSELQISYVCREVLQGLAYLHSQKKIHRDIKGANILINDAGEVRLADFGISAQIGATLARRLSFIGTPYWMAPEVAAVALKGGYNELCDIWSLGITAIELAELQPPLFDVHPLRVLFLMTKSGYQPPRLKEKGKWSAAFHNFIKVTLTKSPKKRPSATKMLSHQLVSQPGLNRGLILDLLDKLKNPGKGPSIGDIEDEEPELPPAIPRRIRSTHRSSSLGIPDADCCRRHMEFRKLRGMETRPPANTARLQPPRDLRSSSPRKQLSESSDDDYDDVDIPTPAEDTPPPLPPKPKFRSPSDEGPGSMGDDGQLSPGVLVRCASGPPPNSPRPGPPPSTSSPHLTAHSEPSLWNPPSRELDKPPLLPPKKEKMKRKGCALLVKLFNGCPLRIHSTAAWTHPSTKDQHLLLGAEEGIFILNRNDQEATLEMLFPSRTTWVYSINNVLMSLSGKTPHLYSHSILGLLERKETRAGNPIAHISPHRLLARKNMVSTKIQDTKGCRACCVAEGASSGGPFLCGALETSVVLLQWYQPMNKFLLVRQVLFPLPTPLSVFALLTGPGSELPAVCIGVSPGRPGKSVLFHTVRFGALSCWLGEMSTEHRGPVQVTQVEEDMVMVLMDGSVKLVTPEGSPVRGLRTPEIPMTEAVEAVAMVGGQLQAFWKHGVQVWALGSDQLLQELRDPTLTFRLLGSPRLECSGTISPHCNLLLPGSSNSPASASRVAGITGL
Sequence of Calcium/calmodulin-dependent protein kinase type II subunit delta (Homo sapiens) (Q13557 whole entry): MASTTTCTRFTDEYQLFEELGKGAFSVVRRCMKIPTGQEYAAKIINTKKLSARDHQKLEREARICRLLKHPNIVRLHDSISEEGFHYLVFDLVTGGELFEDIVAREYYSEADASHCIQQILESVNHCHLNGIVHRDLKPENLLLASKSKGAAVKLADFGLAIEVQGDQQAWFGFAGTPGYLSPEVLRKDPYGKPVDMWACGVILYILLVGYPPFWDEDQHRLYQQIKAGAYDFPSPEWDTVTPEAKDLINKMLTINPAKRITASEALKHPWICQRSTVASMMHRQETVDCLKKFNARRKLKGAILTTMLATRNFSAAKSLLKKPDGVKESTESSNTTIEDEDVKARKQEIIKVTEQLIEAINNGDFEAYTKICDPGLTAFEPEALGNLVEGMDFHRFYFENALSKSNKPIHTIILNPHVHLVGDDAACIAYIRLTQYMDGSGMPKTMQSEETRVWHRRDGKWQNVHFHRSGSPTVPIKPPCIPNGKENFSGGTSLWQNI
Sequence of Serine/threonine-protein kinase WNK1 (Homo sapiens) (Q9H4A3 whole entry, looked up): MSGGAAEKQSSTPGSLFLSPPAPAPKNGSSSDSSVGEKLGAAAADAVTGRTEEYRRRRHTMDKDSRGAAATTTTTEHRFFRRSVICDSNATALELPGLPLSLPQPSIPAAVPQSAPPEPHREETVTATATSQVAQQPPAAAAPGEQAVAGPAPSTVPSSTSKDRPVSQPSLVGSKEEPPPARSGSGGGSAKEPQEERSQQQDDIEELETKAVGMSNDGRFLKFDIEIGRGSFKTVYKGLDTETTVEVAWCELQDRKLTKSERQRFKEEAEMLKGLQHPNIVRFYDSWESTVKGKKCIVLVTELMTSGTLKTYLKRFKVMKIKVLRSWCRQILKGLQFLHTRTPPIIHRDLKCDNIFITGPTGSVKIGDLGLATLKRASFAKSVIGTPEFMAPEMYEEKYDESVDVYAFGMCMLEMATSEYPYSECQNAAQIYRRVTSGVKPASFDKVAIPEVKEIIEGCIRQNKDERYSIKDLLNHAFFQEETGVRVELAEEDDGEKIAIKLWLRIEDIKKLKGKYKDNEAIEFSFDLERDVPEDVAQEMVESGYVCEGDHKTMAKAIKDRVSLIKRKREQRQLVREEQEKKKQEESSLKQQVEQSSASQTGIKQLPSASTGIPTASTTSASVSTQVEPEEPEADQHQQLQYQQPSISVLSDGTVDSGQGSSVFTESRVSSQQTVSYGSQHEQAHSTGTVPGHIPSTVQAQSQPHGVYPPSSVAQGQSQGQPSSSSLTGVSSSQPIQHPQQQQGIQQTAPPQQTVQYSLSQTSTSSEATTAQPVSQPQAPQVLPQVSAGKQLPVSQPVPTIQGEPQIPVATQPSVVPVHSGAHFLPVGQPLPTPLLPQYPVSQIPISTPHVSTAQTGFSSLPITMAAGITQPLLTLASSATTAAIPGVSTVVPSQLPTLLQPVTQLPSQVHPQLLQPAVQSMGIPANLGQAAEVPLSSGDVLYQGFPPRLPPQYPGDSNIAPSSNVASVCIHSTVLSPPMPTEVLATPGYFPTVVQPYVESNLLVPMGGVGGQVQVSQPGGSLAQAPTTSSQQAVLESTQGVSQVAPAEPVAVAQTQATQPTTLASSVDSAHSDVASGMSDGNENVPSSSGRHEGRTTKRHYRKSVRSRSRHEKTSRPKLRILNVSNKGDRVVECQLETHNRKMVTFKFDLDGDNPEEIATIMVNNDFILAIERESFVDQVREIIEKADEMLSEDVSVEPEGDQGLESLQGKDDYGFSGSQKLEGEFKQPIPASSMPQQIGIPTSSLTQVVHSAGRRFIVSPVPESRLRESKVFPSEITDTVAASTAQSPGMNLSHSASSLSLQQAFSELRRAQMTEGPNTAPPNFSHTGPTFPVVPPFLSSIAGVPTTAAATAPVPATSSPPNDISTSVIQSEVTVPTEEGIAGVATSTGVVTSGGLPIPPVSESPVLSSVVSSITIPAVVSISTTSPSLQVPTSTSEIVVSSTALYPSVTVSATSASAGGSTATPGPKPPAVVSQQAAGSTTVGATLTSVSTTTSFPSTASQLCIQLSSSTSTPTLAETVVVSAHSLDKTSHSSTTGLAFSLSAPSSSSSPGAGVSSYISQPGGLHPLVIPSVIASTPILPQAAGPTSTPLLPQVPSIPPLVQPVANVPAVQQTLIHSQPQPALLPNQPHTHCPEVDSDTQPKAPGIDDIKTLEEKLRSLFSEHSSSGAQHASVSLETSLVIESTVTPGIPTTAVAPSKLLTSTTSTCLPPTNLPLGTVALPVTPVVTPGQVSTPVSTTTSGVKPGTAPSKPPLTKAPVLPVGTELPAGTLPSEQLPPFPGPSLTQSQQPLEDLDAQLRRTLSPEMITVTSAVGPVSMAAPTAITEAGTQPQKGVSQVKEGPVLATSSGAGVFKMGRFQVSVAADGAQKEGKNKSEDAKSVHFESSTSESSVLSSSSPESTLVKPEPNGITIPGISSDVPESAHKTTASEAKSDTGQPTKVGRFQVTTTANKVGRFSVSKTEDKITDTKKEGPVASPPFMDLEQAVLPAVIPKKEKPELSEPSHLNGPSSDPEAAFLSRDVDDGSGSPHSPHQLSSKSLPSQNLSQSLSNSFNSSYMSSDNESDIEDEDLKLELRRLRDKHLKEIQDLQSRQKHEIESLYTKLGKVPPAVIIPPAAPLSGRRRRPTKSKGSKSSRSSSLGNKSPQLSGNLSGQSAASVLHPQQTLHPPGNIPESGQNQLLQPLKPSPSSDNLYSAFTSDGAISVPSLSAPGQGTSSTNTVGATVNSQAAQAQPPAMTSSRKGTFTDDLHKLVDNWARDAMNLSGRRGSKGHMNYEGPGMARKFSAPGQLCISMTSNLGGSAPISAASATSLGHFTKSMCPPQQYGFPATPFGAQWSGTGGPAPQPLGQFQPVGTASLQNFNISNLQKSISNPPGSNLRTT

With `N#Cc1cccc(-c2c[nH]c3ncnc(N4CCOCC4)c23)c1`, in assay [1], the % of control came to 100%.
As for `CCN(CC)CCCCNc1ncc2cc(-c3cc(OC)cc(OC)c3)c(NC(=O)NC(C)(C)C)nc2n1`, the % of control in assay [2] is 100%.
With `CC[C@@H]1[C@H](F)C(=O)N[C@@H]1COc1nccc2cc(C(N)=O)c(OC)cc12` [ZIMLOVISERTIB], the % of inhibition in assay [3] (at 0.01 µM) is 9.7%; in assay [3] (at 0.04 µM), -10.3%; in assay [3] (at 0.2 µM), -26.5%; in assay [3] (at 1 µM), -6.5%; in assay [3] (at 5 µM), -18.1%.
Turning to `C=CC(=O)Nc1cccc(C(=O)Nc2ccc(Nc3cc(-c4[nH]c(SC)nc4C)ccn3)cc2)c1`, the % of control in assay [4] (at 1 µM) came to 74%; in assay [4] (at 5 µM) it was 34%; in assay [5] (at 1 µM), 92%; in assay [5] (at 5 µM) it was 99%.
Consider `C=CC(=O)Nc1ccc(C(=O)Nc2[nH]nc3c2CN(C(=O)N[C@H](CN(C)C)c2ccccc2)C3(C)C)cc1`, for which the % of engagement in assay [6] was -16.1%.
